How the values were obtained:
[1] = tested on: advanced cholangiocarcinoma with FGFR alterations; conditions: 11 subjects dosed with 8 mg qd; snapshot 20 Mar. 2018
Procedure: (§1) LUC2001 is an open-label, multicenter, phase 2a study including advanced cholangiocarcinoma subjects with FGFR alterations, based on FoundationOne testing, who failed at least 1 prior systemic treatment. The primary endpoint is objective response rate (ORR; by Response Evaluation Criteria in Solid Tumors (RECIST) version 1.1). The secondary endpoints are disease control rate (DCR), safety and pharmacokinetics. Disease is evaluated every 8 weeks until disease progression (PD). […] The dose of the drug may be modified, delayed, or terminated based on guidelines in the protocol.

[2] = compared with published Part 1 results (Tabernero 2015)
[3] = tested on: patients with FGFR-aberrant cholangiocarcinoma; experiment: Clinical trial NCT01703481: safety; format: in vivo, human; conditions: compared with published Part 1 results (Tabernero 2015)
Procedure: Eleven patients with FGFR-aberrant cholangiocarcinoma were treated at 9 mg QD (n=1, Part 3) or 10 mg intermittent (n=10, Part 4).

[4] = tested on: advanced cholangiocarcinoma patients; experiment: LUC2001 (NCT02699606) phase 2a study: safety (adverse events)
Procedure: as §1

[5] = tested on: FGFR-aberrant cholangiocarcinoma
Text: Sparse samples were collected in Parts 3 and 4.

[6] = 8 mg qd, most common AEs (>30%)

## COc1cc(OC)cc(N(CCNC(C)C)c2ccc3ncc(-c4cnn(C)c4)nc3c2)c1 [erdafitinib, N-(3,5-dimethoxy-phenyl)-N′-(1-methylethyl)-N-[3-(1-methyl-1H-pyrazol-4-yl)quinoxalin-6-yl]ethane-1,2-diamine]
[1]
  PD (disease progression), number of subjects: 2
[2]
  PK data: consistent with those from the previously published results from Part 1 of this study
[3]
  Safety data: consistent with those from the previously published results from Part 1 of this study
[4]; [6]
  AE diarrhea (subjects/dosed): 4/11
  AE dry mouth (subjects/dosed): 7/11
  AE hyperphosphatemia (subjects/dosed): 8/11
  AE nail disorder (subjects/dosed): 4/11
  AE palmar-plantar erythrodysaesthesia syndrome (subjects/dosed): 4/11
  AE stomatitis (subjects/dosed): 7/11
[4]; 11 subjects, 8 mg qd
  AE leading to treatment discontinuation or death: no AE led to treatment discontinuation or death
  subjects who experienced AEs: All subjects experienced AEs
  subjects with AEs leading to drug interruption: all had AEs leading to drug interruption
[4]; patients with FGFR-aberrant advanced cholangiocarcinoma
  safety profile (conclusion): tolerable safety profile
[5]; number of patients (n)
  partial responses, fusion FGFR2-BICC1: 1
  partial responses, fusion FGFR2-CCAR1: 1
[5]; number of patients among the 3 partial responses
  partial responses, patients with FGFR translocations: 2

From US12350266B2, “FGFR2 inhibitors for the treatment of cholangiocarcinoma” (Janssen Pharmaceutica NV, priority 2017, dated 2025)
